From US9573930B2 (Quanticel Pharmaceuticals, Inc., priority 2014, dated 2017)

target: full-length human LSD1 (Homo sapiens (Human), UniProt O60341); assay: In vitro enzyme inhibition assay LSD-1 (TR-FRET); format: biochemical; conditions: H3K4me1-biotin peptide
Method: This assay determines the ability of a test compound to inhibit LSD1 demethylase activity.
The enzymatic assay of LSD1 activity is based on Time Resolved-Fluorescence Resonance Energy Transfer (TR-FRET) detection.
The ability of the compounds disclosed herein to inhibit LSD1 activity was quantified and the respective IC50 value was determined.

| SMILES | IC50 |
| --- | --- |
| Cn1c(N2CCC(N)CC2)nc(-c2ccc(C#N)cc2)c(-c2ccc(C(N)=O)c(F)c2)c1=O [Example 41, 4-[2-(4-aminopiperidyl)-6-(4-cyanophenyl)-3-methyl-4-oxo(3-hydropyrimidin-5-yl)]-2-fluorobenzamide] | < 100 nM |
| Cn1c(N2CCC(N)CC2)nc(-c2ccc(C#N)c(F)c2)c(-c2ccc3c(c2)CNC3=O)c1=O [Example 42, 4-[2-(4-amino-piperidin-1-yl)-1-methyl-6-oxo-5-(1-oxo-2,3-dihydro-1H-isoindol-5-yl)-1,6-dihydro-pyrimidin-4-yl]-2-fluoro-benzonitrile] | < 100 nM |
| COc1ccc(-c2c(-c3ccc(C#N)cc3)nc(NC[C@H]3CCNC3)n(C)c2=O)cc1F [Example 44, 4-{5-(3-fluoro-4-methoxy-phenyl)-1-methyl-6-oxo-2-[(3S)-(pyrrolidin-3-ylmethyl)-amino]-1,6-dihydro-pyrimidin-4-yl}-benzonitrile] | < 100 nM |
| COc1ccc(-c2c(-c3ccc(C#N)cc3)nc(NC[C@@H]3CCNC3)n(C)c2=O)cc1F [Example 45, 4-{5-(3-fluoro-4-methoxy-phenyl)-1-methyl-6-oxo-2-[(3R)-(pyrrolidin-3-ylmethyl)-amino]-1,6-dihydro-pyrimidin-4-yl}-benzonitrile] | < 100 nM |
| COc1ccc(-c2c(-c3ccc(C#N)c(F)c3)nc(N3CCCNCC3)n(C)c2=O)cc1F [Example 46, 4-[2-[1,4]diazepan-1-yl-5-(3-fluoro-4-methoxy-phenyl)-1-methyl-6-oxo-1,6-dihydro-pyrimidin-4-yl]-2-fluoro-benzonitrile] | < 100 nM |
| COc1ccc(-c2c(-c3ccc(C#N)c(F)c3)nc(N3CCNCC3)n(C)c2=O)cc1F [Example 47, 2-fluoro-4-[5-(3-fluoro-4-methoxy-phenyl)-1-methyl-6-oxo-2-piperazin-1-yl-1,6-dihydro-pyrimidin-4-yl]-benzonitrile] | < 100 nM |
| CN(C)c1ncc(-c2c(-c3ccc(C#N)c(F)c3)nc(N3CCC(N)CC3)n(C)c2=O)cn1 [Example 49, 4-[2-(4-amino-piperidin-1-yl)-2′-dimethylamino-1-methyl-6-oxo-1,6-dihydro-[5,5′]bipyrimidinyl-4-yl]-2-fluoro-benzonitrile] | < 100 nM |
| CNC(=O)c1ccc(-c2c(-c3ccc(C#N)c(F)c3)nc(N3CCC(N)CC3)n(C)c2=O)cn1 [Example 50, 5-[2-(4-amino-piperidin-1-yl)-4-(4-cyano-3-fluoro-phenyl)-1-methyl-6-oxo-1,6-dihydro-pyrimidin-5-yl]-pyridine-2-carboxylic acid methylamide] | < 100 nM |
| COc1ccc(-c2c(-c3ccc(C#N)c(F)c3)nc(NC[C@H]3CCNC3)n(C)c2=O)cc1 [Example 51, 2-fluoro-4-{5-(4-methoxy-phenyl)-1-methyl-6-oxo-2-[(3S)-(pyrrolidin-3-ylmethyl)-amino]-1,6-dihydro-pyrimidin-4-yl}-benzonitrile] | < 100 nM |
| COc1ccc(-c2c(-c3ccc(C#N)c(F)c3)nc(NC[C@@H]3CCNC3)n(C)c2=O)cc1 [Example 52, 2-luoro-4-{5-(4-methoxy-phenyl)-1-methyl-6-oxo-2-[(3R)-(pyrrolidin-3-ylmethyl)-amino]-1,6-dihydro-pyrimidin-4-yl}-benzonitrile] | < 100 nM |
| COc1ccc(-c2c(-c3ccc(C#N)c(F)c3)nc(NC3CCNCC3)n(C)c2=O)cc1 [Example 53, 2-fluoro-4-[5-(4-methoxy-phenyl)-1-methyl-6-oxo-2-(piperidin-4-ylamino)-1,6-dihydro-pyrimidin-4-yl]-benzonitrile] | < 100 nM |
| COc1ccc(-c2c(-c3ccc(C#N)c(F)c3)nc(N(C)C[C@H]3CCNC3)n(C)c2=O)cc1 [Example 54, 2-fluoro-4-[5-(4-methoxy-phenyl)-1-methyl-2-(methyl-(3S)-pyrrolidin-3-ylmethyl-amino)-6-oxo-1,6-dihydro-pyrimidin-4-yl]-benzonitrile] | < 100 nM |
| COc1ccc(-c2c(-c3ccc(C#N)c(F)c3)nc(N(C)C3CCNCC3)n(C)c2=O)cc1 [Example 55, 2-fluoro-4-[5-(4-methoxy-phenyl)-1-methyl-2-(methyl-piperidin-4-yl-amino)-6-oxo-1,6-dihydro-pyrimidin-4-yl]-benzonitrile] | < 100 nM |
| CN(C)c1ccc(-c2c(-c3ccc(C#N)c(F)c3)nc(N3CCC(N)CC3)n(C)c2=O)cn1 [Example 57, 4-[2-(4-amino-piperidin-1-yl)-5-(6-dimethylamino-pyridin-3-yl)-1-methyl-6-oxo-1,6-dihydro-pyrimidin-4-yl]-2-fluoro-benzonitrile] | < 100 nM |
| CNC1CCN(c2nc(-c3ccc(C#N)c(F)c3)c(-c3ccc(OC)nc3)c(=O)n2C)CC1 [Example 58, 2-fluoro-4-[5-(6-methoxy-pyridin-3-yl)-1-methyl-2-(4-methylamino-piperidin-1-yl)-6-oxo-1,6-dihydro-pyrimidin-4-yl]-benzonitrile] | < 100 nM |
| CN(C)c1ccc(-c2c(-c3ccc(C#N)c(F)c3)nc(N3CCC(N)CC3)n(C)c2=O)cc1 [Example 59, 4-[2-(4-amino-piperidin-1-yl)-5-(4-dimethylamino-phenyl)-1-methyl-6-oxo-1,6-dihydro-pyrimidin-4-yl]-2-fluoro-benzonitrile] | < 100 nM |

| SMILES | IC50 |
| --- | --- |
| Cn1c(N2CCC(N)CC2)nc(-c2ccc(C#N)c(F)c2)c(-c2ccc(N3CCCC3)nc2)c1=O [Example 60, 4-[2-(4-amino-piperidin-1-yl)-1-methyl-6-oxo-5-(6-pyrrolidin-1-yl-pyridin-3-yl)-1,6-dihydro-pyrimidin-4-yl]-2-fluoro-benzonitrile] | < 100 nM |
| COc1ccc(-c2c(-c3ccc(C#N)c(F)c3)nc(N3CCCNCC3)n(C)c2=O)cn1 [Example 61, 4-[2-[1,4]diazepan-1-yl-5-(6-methoxy-pyridin-3-yl)-1-methyl-6-oxo-1,6-dihydro-pyrimidin-4-yl]-2-fluoro-benzonitrile] | < 100 nM |
| COc1ccc(-c2c(-c3ccc(C#N)cc3)nc(N3CCCNCC3)n(C)c2=O)cn1 [Example 62] | < 100 nM |
| CN(C)c1ccc(-c2c(-c3ccc(C#N)c(F)c3)nc(N3CCCNCC3)n(C)c2=O)cn1 [Example 63, 4-[2-[1,4]diazepan-1-yl-5-(6-dimethylamino-pyridin-3-yl)-1-methyl-6-oxo-1,6-dihydro-pyrimidin-4-yl]-2-fluoro-benzonitrile] | < 100 nM |
| COc1ccc(-c2c(-c3ccc(C#N)c(F)c3)nc(N3CC(N)C3)n(C)c2=O)cc1 [Example 64, 4-[2-(3-amino-azetidin-1-yl)-5-(4-methoxy-phenyl)-1-methyl-6-oxo-1,6-dihydro-pyrimidin-4-yl]-2-fluoro-benzonitrile] | < 100 nM |
| CNC1CCN(c2nc(-c3ccc(C#N)c(F)c3)c(-c3ccc4nn(C)cc4c3)c(=O)n2C)CC1 [Example 65, 2-fluoro-4-[1-methyl-2-(4-methylamino-piperidin-1-yl)-5-(2-methyl-2H-indazol-5-yl)-6-oxo-1,6-dihydro-pyrimidin-4-yl]-benzonitrile] | < 100 nM |
| Cn1cc2cc(-c3c(-c4ccc(C#N)c(F)c4)nc(N4CCCNCC4)n(C)c3=O)ccc2n1 [Example 66, 4-[2-[1,4]diazepan-1-yl-1-methyl-5-(2-methyl-2H-indazol-5-yl)-6-oxo-1,6-dihydro-pyrimidin-4-yl]-2-fluoro-benzonitrile] | < 100 nM |
| CN(C)c1ccc(-c2c(-c3ccc(C#N)cc3)nc(N3CCCNCC3)n(C)c2=O)cn1 [Example 67, 4-[2-[1,4]diazepan-1-yl-5-(6-dimethylamino-pyridin-3-yl)-1-methyl-6-oxo-1,6-dihydro-pyrimidin-4-yl]-benzonitrile] | < 100 nM |
| Cn1c(N2CCC(N)CC2)nc(-c2ccc(C#N)c(F)c2)c(-c2ccc(N3CCOCC3)nc2)c1=O [Example 68, 4-[2-(4-amino-piperidin-1-yl)-1-methyl-5-(6-morpholin-4-yl-pyridin-3-yl)-6-oxo-1,6-dihydro-pyrimidin-4-yl]-2-fluoro-benzonitrile] | < 100 nM |
| COc1ccc(-c2c(-c3ccc(C#N)c(F)c3)nc(N3CC(CN)C3)n(C)c2=O)cc1 [Example 69, 4-[2-(3-aminomethyl-azetidin-1-yl)-5-(4-methoxy-phenyl)-1-methyl-6-oxo-1,6-dihydro-pyrimidin-4-yl]-2-fluoro-benzonitrile] | < 100 nM |
| CNCC1CN(c2nc(-c3ccc(C#N)c(F)c3)c(-c3ccc(OC)cc3)c(=O)n2C)C1 [Example 70, 2-fluoro-4-[5-(4-methoxy-phenyl)-1-methyl-2-(3-methylaminomethyl-azetidin-1-yl)-6-oxo-1,6-dihydro-pyrimidin-4-yl]-benzonitrile] | < 100 nM |
| CN(C)C1CCN(c2nc(-c3ccc(C#N)c(F)c3)c(-c3ccc4nn(C)cc4c3)c(=O)n2C)CC1 [Example 71, 4-[2-(4-dimethylamino-piperidin-1-yl)-1-methyl-5-(2-methyl-2H-indazol-5-yl)-6-oxo-1,6-dihydro-pyrimidin-4-yl]-2-fluoro-benzonitrile] | < 100 nM |
| CN(C)C1CCN(c2nc(-c3ccc(C#N)c(F)c3)c(-c3ccc4c(cnn4C)c3)c(=O)n2C)CC1 [Example 72, 4-[2-(4-dimethylamino-piperidin-1-yl)-1-methyl-5-(1-methyl-1H-indazol-5-yl)-6-oxo-1,6-dihydro-pyrimidin-4-yl]-2-fluoro-benzonitrile] | < 100 nM |
| Cn1c(N2CCC(N)CC2)nc(-c2ccc(C#N)c(F)c2)c(-c2ccc3[nH]ccc3c2)c1=O [Example 73, 4-[2-(4-amino-piperidin-1-yl)-5-(1H-indol-5-yl)-1-methyl-6-oxo-1,6-dihydro-pyrimidin-4-yl]-2-fluoro-benzonitrile] | < 100 nM |
| Cn1c(N2CCC(N)CC2)nc(-c2ccc(C#N)c(F)c2)c(-c2ccc3ccn(C)c3c2)c1=O [Example 76, 4-[2-(4-amino-piperidin-1-yl)-1-methyl-5-(1-methyl-1H-indol-6-yl)-6-oxo-1,6-dihydro-pyrimidin-4-yl]-2-fluoro-benzonitrile] | < 100 nM |
| Cn1c(N2CCC(N)CC2)nc(-c2ccc(C#N)c(F)c2)c(-c2ccc3cn[nH]c3c2)c1=O [Example 77, 4-[2-(4-amino-piperidin-1-yl)-5-(1H-indazol-6-yl)-1-methyl-6-oxo-1,6-dihydro-pyrimidin-4-yl]-2-fluoro-benzonitrile] | < 100 nM |
